# From the supplement of paper PMC10307832
# Columns and labels:
# Assay in all cases: relative viability (nuclei count vs DMSO), 5 days (fraction); higher = more cells survive
# Everolimus + Decitabine = compound: CO[C@H]1C[C@@H]2CC[C@@H](C)[C@@](O)(O2)C(=O)C(=O)N2CCCC[C@H]2C(=O)O[C@H]([C@H](C)C[C@@H]2CC[C@@H](OCCO)[C@H](OC)C2)CC(=O)[C@H](C)/C=C(\C)[C@@H](O)[C@@H](OC)C(=O)[C@H](C)C[C@H](C)/C=C/C=C/C=C/1C [Everolimus] + Nc1ncn([C@H]2C[C@H](O)[C@@H](CO)O2)c(=O)n1 [Decitabine] (partner 2 µM)
# Method in brief: (§1)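 For relative viability, nuclei counts in treated wells were divided by those in vehicle wells. Lung cancer cell lines had been pin-tool dosed in 1536-well plates the day after seeding and cultured for 5 days, then fixed and stained in one step (final 0.05% Triton X-100, 1% formaldehyde, 1 ug/ml Hoechst) and imaged at 4×. Doses were one drug alone or a fixed anchor-drug dose plus five library-drug doses (not always all listed) in √10 steps, and values are duplicate-plate medians.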
# Everolimus + Foretinib = compound: CO[C@H]1C[C@@H]2CC[C@@H](C)[C@@](O)(O2)C(=O)C(=O)N2CCCC[C@H]2C(=O)O[C@H]([C@H](C)C[C@@H]2CC[C@@H](OCCO)[C@H](OC)C2)CC(=O)[C@H](C)/C=C(\C)[C@@H](O)[C@@H](OC)C(=O)[C@H](C)C[C@H](C)/C=C/C=C/C=C/1C [Everolimus] + COc1cc2c(Oc3ccc(NC(=O)C4(C(=O)Nc5ccc(F)cc5)CC4)cc3F)ccnc2cc1OCCCN1CCOCC1 [Foretinib] (partner 0.25 µM)
# Method in brief: as §1
# Everolimus + Dasatinib = compound: CO[C@H]1C[C@@H]2CC[C@@H](C)[C@@](O)(O2)C(=O)C(=O)N2CCCC[C@H]2C(=O)O[C@H]([C@H](C)C[C@@H]2CC[C@@H](OCCO)[C@H](OC)C2)CC(=O)[C@H](C)/C=C(\C)[C@@H](O)[C@@H](OC)C(=O)[C@H](C)C[C@H](C)/C=C/C=C/C=C/1C [Everolimus] + Cc1nc(Nc2ncc(C(=O)Nc3c(C)cccc3Cl)s2)cc(N2CCN(CCO)CC2)n1 [Dasatinib] (partner 0.075 µM)
# Method in brief: as §1
# Everolimus + Luminespib = compound: CO[C@H]1C[C@@H]2CC[C@@H](C)[C@@](O)(O2)C(=O)C(=O)N2CCCC[C@H]2C(=O)O[C@H]([C@H](C)C[C@@H]2CC[C@@H](OCCO)[C@H](OC)C2)CC(=O)[C@H](C)/C=C(\C)[C@@H](O)[C@@H](OC)C(=O)[C@H](C)C[C@H](C)/C=C/C=C/C=C/1C [Everolimus] + CCNC(=O)c1noc(-c2cc(C(C)C)c(O)cc2O)c1-c1ccc(CN2CCOCC2)cc1 [Luminespib] (partner 0.01 µM)
# Method in brief: as §1
Cell Line,relative viability (Everolimus + Decitabine; first compound 0.01 µM),relative viability (Everolimus + Decitabine; first compound 0.03162 µM),relative viability (Everolimus + Decitabine; first compound 0.1 µM),relative viability (Everolimus + Decitabine; first compound 0.3162 µM),relative viability (Everolimus + Decitabine; first compound 1 µM),relative viability (Everolimus + Foretinib; first compound 0.01 µM),relative viability (Everolimus + Foretinib; first compound 0.03162 µM),relative viability (Everolimus + Foretinib; first compound 0.1 µM),relative viability (Everolimus + Foretinib; first compound 0.3162 µM),relative viability (Everolimus + Foretinib; first compound 1 µM),relative viability (Everolimus + Dasatinib; first compound 0.01 µM),relative viability (Everolimus + Dasatinib; first compound 0.03162 µM),relative viability (Everolimus + Dasatinib; first compound 0.1 µM),relative viability (Everolimus + Dasatinib; first compound 0.3162 µM),relative viability (Everolimus + Dasatinib; first compound 1 µM),relative viability (Everolimus + Luminespib; first compound 0.01 µM),relative viability (Everolimus + Luminespib; first compound 0.03162 µM),relative viability (Everolimus + Luminespib; first compound 0.1 µM),relative viability (Everolimus + Luminespib; first compound 0.3162 µM),relative viability (Everolimus + Luminespib; first compound 1 µM)
HCC-78,0.593,0.605,0.636,0.643,0.603,0.496,0.477,0.447,0.51,0.391,0.328,0.291,0.248,0.263,0.343,,,,,
HCC-366,0.301,0.226,0.257,0.291,0.212,0.794,0.888,0.873,0.866,0.869,0.459,0.593,0.477,0.46,0.354,,,,,
HCC-827,0.282,0.234,0.303,0.319,0.287,0.929,0.982,0.906,0.828,0.771,0.221,0.331,0.2,0.168,0.17,0.346,0.33,0.204,0.203,0.199
HOP-62,0.223,0.278,0.195,0.251,0.321,0.903,0.835,0.776,0.731,0.779,0.394,0.424,0.352,0.382,0.387,0.918,0.853,0.782,0.919,0.926
IA-LM,,,,,,0.927,0.547,0.476,0.595,0.42,,,,,,,,,,
LC-2-ad,0.846,0.779,0.888,0.819,0.726,0.741,0.659,0.703,0.674,0.693,0.544,0.51,0.515,0.427,0.505,1.17,1.05,0.832,1.08,0.892
LCLC-97TM1,0.197,0.205,0.184,0.208,0.218,0.833,0.562,0.915,0.904,0.862,0.929,0.851,0.932,0.836,0.917,0.76,0.743,0.549,0.581,0.769
LCLC-103H,0.682,0.682,0.633,0.58,0.653,0.597,0.572,0.522,0.545,0.574,0.404,0.305,0.35,0.319,0.322,0.839,0.819,0.689,0.741,0.733
LK-2,0.268,0.156,0.19,0.194,0.193,0.638,,0.583,0.656,0.679,0.231,,0.239,0.209,0.306,0.179,,0.171,0.177,0.189
LOU-NH91,0.718,0.76,0.702,0.699,0.686,0.853,0.793,0.712,0.746,0.691,0.486,0.467,0.476,0.434,0.449,0.284,0.307,0.317,0.321,0.314
LU99A,0.537,0.514,0.43,0.485,0.566,0.52,0.565,0.525,0.519,0.605,0.452,0.499,0.439,0.284,0.35,0.226,0.204,0.185,0.191,0.253
LXF-289,0.358,0.359,0.306,0.38,0.411,1.03,1,0.936,0.99,1,0.291,0.199,0.151,0.197,0.178,0.59,0.512,0.582,0.641,0.66
NCI-H522,0.594,0.677,0.517,0.684,0.537,,,,,,0.776,0.624,0.629,0.71,0.724,0.841,0.631,0.767,0.738,0.811
NCI-H1299,,,,,,1.06,1.21,0.634,1.07,1.05,,,,,,,,,,
NCI-H1563,,,,,,0.721,0.768,0.685,0.712,0.562,0.434,0.419,0.462,0.464,0.437,0.54,0.479,0.548,0.501,0.496
NCI-H1648,0.484,0.423,0.383,0.405,0.399,,,,,,,,,,,,,,,
NCI-H1703,,,,,,0.347,0.406,0.361,0.338,0.328,,,,,,,,,,
NCI-H1792,0.396,0.338,0.249,0.276,0.199,,,,,,0.732,0.435,0.562,0.518,0.484,0.295,0.24,0.21,0.229,0.217
NCI-H2228,,,,,,0.603,0.586,0.575,0.413,0.556,0.335,0.394,0.246,0.271,0.253,0.114,0.185,0.145,0.131,0.115
